One series is described as follows: in vitro. To be noted: African green monkey.
The conditions of series [1]: 1 h, pH 7.4.
Another series addresses hERG channel (Homo sapiens, UniProt Q12809). To be noted: pH 7.4.
The subject of the next series is JUNV-p. The series is described as follows: organism not typed. It counts as cell-based, Junin (JUNV). As to conditions: Vero, 24 h, read-out: JUNV-p EC50 (nM).
For the next series, the system named is MACV-p. Put plainly: organism not typed. To be noted: Vero, 24 h, read-out: MACV-p EC50 (nM). It counts as cell-based, Machupo (MACV).
The next series deals with TCRV-p. Put plainly: organism not typed. As to conditions: Vero, 24 h, read-out: TCRV-p EC50 (nM). The series is classed as cell-based.
The conditions of series [2]: 1 h, pH 7.4. The source holds these as a separate data set.
The conditions of series [3]: 1 h, pH 7.4. The source holds these as a separate data set.
A further series concerns LASV-p. The series is described as follows: organism not typed. To be noted: Vero, 24 h, read-out: LASV-p EC50 (nM). The series is classed as cell-based, Lassa (LASV).
The conditions of series [4]: 1 h, pH 7.4. This is another data set of the same source.
For series [5] the following is noted: guinea pig, 1 h, pH 7.4.
Another series relates to GTOV-p. The series is described as follows: organism not typed. It counts as cell-based, Guanarito (GTOV). To be noted: Vero, 24 h, read-out: GTOV-p EC50 (nM).
For series [6] the following is noted: 1 h, pH 7.4. The source holds these as a separate data set.

Sequence of hERG channel (Q12809 whole entry): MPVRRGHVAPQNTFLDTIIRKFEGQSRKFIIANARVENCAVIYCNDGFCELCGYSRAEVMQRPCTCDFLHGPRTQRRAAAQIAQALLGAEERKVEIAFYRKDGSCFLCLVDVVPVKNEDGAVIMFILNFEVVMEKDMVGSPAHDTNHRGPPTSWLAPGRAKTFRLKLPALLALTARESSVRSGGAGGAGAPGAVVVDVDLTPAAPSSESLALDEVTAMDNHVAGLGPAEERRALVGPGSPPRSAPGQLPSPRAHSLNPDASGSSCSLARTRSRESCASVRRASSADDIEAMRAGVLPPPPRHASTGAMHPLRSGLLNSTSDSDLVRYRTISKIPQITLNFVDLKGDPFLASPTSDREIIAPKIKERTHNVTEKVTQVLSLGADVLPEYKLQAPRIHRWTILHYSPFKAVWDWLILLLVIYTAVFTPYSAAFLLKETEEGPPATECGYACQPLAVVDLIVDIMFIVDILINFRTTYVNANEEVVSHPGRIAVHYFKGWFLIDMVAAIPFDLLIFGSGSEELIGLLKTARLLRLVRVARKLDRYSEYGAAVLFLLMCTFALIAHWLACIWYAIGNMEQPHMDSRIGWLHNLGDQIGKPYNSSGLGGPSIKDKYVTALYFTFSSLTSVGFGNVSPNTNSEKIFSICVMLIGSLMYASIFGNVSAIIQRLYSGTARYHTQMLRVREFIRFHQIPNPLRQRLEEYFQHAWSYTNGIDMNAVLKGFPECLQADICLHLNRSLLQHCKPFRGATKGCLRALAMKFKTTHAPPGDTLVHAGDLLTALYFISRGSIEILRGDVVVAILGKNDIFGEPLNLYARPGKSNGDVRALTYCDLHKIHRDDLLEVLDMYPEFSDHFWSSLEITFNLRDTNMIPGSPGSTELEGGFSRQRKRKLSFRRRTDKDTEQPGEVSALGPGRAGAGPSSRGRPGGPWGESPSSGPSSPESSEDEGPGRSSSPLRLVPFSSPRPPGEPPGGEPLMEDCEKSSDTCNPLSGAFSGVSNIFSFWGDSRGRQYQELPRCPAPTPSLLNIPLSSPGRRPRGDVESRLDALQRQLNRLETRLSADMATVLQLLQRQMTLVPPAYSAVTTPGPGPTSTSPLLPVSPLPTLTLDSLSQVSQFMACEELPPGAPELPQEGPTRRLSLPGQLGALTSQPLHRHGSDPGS

The molecule `Cc1c(-c2ccc(OC(C)C)cc2)ccc2ncc(-c3ccc(OC(C)C)cc3)n12` [Example C51, 5-methyl-3,6-bis[4-(propan-2-yloxy)phenyl]imidazo[1,2-a]pyridine] registered a CC50 in the series “in vitro” of 4190 nM. In addition, in series [1], the “Percent parent compound remaining at 60 minutes in liver microsomes, Human” value amounted to 100%. Besides, the “hERG % Inhibition” value on hERG channel came out at 49%. Also, the EC50 was determined as 0.15 nM with JUNV-p; 0.13 nM with MACV-p; 0.37 nM in the series with TCRV-p; 0.31 nM in the series on LASV-p; 0.21 nM with GTOV-p. Further, in series [2], the “Percent parent compound remaining at 60 minutes in liver microsomes, Dog” value worked out at 82%. For the same molecule, the “Percent parent compound remaining at 60 minutes in liver microsomes, Monkey” value in series [3] turned out to be 21%. In addition, the “Percent parent compound remaining at 60 minutes in liver microsomes, Mouse” value in series [4] stood at 92%. Moreover, the “Percent parent compound remaining at 60 minutes in liver microsomes, Guinea” value in [5] is on record as 95%. Besides, the “Percent parent compound remaining at 60 minutes in liver microsomes, Rat” value in series [6] is 75%.

As a reminder, the EC50 is the concentration needed to bring the measured effect to its halfway point.

The values above are taken from US20220281825A1 (priority 2016, published 2022).
